Assay results taken from article PMC8317927 (Journal of Enzyme Inhibition and Medicinal Chemistry, 2021).
Converted amounts (≈) assume the structure as drawn. “And” between values parts separate entries of the source, which are not always exact repeats. Equal entries are not always repeated. Where two headings read alike, the source gives them in different places.

Assays:
bovine testicular HAase = target: T1, bovine testicular HAase (Bos taurus, UniProt Q2YDK3); assay: Hyaluronidase inhibition assay; assay type: biochemical; details: for inhibition at 40 µg/mL: read-out: Inhibition (%) of HAase enzyme activity; for IC50 on HAase enzyme activity: nonlinear regression of inhibition rates at five concentrations (1-40 µg/mL)
T1 sequence (Q2YDK3 36-553): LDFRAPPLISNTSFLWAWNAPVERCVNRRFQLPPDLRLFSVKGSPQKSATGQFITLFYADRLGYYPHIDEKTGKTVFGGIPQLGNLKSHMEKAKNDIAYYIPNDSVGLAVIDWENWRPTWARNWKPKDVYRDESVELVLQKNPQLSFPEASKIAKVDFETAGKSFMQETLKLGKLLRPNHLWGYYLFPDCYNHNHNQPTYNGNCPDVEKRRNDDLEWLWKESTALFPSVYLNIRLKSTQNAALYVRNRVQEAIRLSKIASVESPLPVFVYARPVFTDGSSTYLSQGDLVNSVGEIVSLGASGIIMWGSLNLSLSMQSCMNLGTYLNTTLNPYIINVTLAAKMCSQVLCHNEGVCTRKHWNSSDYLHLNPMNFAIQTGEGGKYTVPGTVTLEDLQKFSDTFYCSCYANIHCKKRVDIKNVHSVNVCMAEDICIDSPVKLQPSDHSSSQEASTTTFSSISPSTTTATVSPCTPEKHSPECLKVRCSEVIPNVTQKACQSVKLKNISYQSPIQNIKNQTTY
Procedure: Inhibitory effect on bovine testicular HAase activity was evaluated using a reported method with minor modifications. It is noted that long HA chains and HAase may form of non-active complexes at low ionic condition, which can impede the catalytic activity of HAase and disrupt the HAase inhibition assay. This interference can be avoided by adding a positively charged protein to balance the ionic strength of the reaction system and recover the activity of HAase[24]. […] […] Then hyaluronic acid (HA; 100 μL) was added to the pre-incubated mixture at 37 °C for 45 min. […] The absorbance was then measured at a wavelength of 600 nm using a microplate reader (SpectraMax M2, Molecular Devices Corp., operated by SoftmaxPro v.4.6 software, Sunnyvale, CA, USA). Each sample was tested at least in three replicates. […] The IC50 value of each sample was determined by analysing its inhibition rates at different concentrations with a nonlinear regression algorithm by GraphPad Prism.

[1] = Cell viability, XTT assay; assay type: cell-based; details: human, HaCaT keratinocyte cells
Procedure: Human keratinocytes (HaCaT) cells were purchased from Sigma Aldrich Co. (St. Louis, MO, USA) and cultured in Dulbecco’s modified Eagle’s medium (DMEM; Life Technologies; Gaithersburg, MD, USA) with 10% fetal bovine serum (Gibico; Grand Island, NY, USA) at 37 °C in the presence of 5% CO2. The cell viability of HaCaT treated with or without OA and its derivatives was measured by the XTT assay according to manufacturer’s instructions (XTT Cell proliferation Kit II; Roche, USA). Briefly, HaCaT cells were seeded in 96-well plates at 5 × 10^3 cells per well and allowed to attach for 12 h. Then OA and its derivatives (100 µL; 10 µg/mL) were incubated with cells for 24 h, followed by adding the XTT reagent (50 µL; 0.3 mg/mL) in each well and incubated for 4 h. The absorbance of each well was measured at wavelengths of 450 nm using a SpectraMax M2 plate reader (Molecular Devices; Sunnyvale, CA, USA).

HAase = assay: Lineweaver-Burk plot, enzyme kinetics of HAase inhibition; assay type: biochemical, bovine; details: four concentrations (5–40 µg/mL); HA 0.125–2.0 µM (6c), 0.2–1.0 µM (6g)
Procedure: The inhibition type of test compounds was determined by the Lineweaver-Burk plots.

HaCaT cells = assay: Cellular reactive oxygen species (ROS), H2O2-induced, DCFDA probe; assay type: cell-based, human; details: 10 µg/mL for 24 h, then H2O2 200 µM for 1 h
Procedure: HaCaT cells were seeded in 96-well plates at 6 × 10^3 cells per well and allowed to attach for 12 h. Then the cells were incubated with test samples (10 µg/mL) for 24 h. Next, the cell culture medium was removed and fresh phosphate buffer solution (PBS; 100 µL) containing a fluorescent probe 2′,7′-dichlorofluorescin diacetate (DCFDA; 20 µM) was added to the cells and incubated for 20 min. Then the cells were treated with H2O2 (100 µL; 200 µM) for 1 h followed by measuring the fluorescence intensity of each well with excitation and emission wavelengths of 485 and 525 nm, respectively, using a SpectraMax M2 plate reader.

Question: What does the source list for CC1(C)CC[C@]2(C(=O)O)CC[C@]3(C)C(=CC[C@@H]4[C@@]5(C)CC[C@H](O)C(C)(C)[C@@H]5CC[C@]43C)[C@@H]2C1 [Compound 1, Oleanolic acid, reference compound]?
Answer: inhibition at 40 µg/mL (bovine testicular HAase): 59.3 ± 2.4%; viability at 24 h, 10 µg/mL [1]: 96.7%

Question: Which inhibition at 40 µg/mL (bovine testicular HAase) does the source give for CC1(C)CC[C@]2(C(=O)O)CC[C@]3(C)C(=CCC4[C@@]5(C)CCC(=O)C(C)(C)C5CC[C@]43C)C2C1 (stereo partly shown) [Compound 2] here?
Answer: 15.9 ± 4.3%

Question: With CC1(C)CCC23CC[C@]4(C)C(OC2=O)(C(F)CC2[C@@]5(C)CC[C@H](O)C(C)(C)C5CC[C@]24C)C3C1 (stereo partly shown) [Compound 3] as the compound, how does the inhibition at 40 µg/mL (bovine testicular HAase; at 40 μg/mL) read?
Answer: 12.7 ± 3.9%

Question: Which inhibition at 40 µg/mL (bovine testicular HAase; at 40 μg/mL) does the source give for CC1(C)CCC23CC[C@]4(C)C(OC2=O)(C(F)CC2[C@@]5(C)CCC(=O)C(C)(C)C5CC[C@]24C)C3C1 (stereo partly shown) [Compound 4] here?
Answer: 37.3 ± 1.4%

Question: For CC1(C)CCC2(C(=O)O)CCC3(C)C(=CCC4C5(C)Cc6c([nH]c7c([N+](=O)[O-])cccc67)C(C)(C)C5CCC43C)C2C1 (stereo not shown) [Compound 6a], which “Inhibition (%) of HAase enzyme activity” value (bovine testicular HAase; at 40 μg/mL) is on record?
Answer: 100.9 ± 4.3%

Question: What about the “IC50 on HAase enzyme activity” value (bovine testicular HAase) of the same compound?
Answer: 16.23 µg/mL (≈ 28.3 µM)

Question: With CC1(C)CCC2(C(=O)O)CCC3(C)C(=CCC4C5(C)Cc6c([nH]c7c(F)cccc67)C(C)(C)C5CCC43C)C2C1 (stereo not shown) [Compound 6b] as the compound, how does the “Inhibition (%) of HAase enzyme activity” value (bovine testicular HAase; at 40 μg/mL) read?
Answer: 100.2% and 100.4 ± 2.4%

Question: And the “IC50 on HAase enzyme activity” value (bovine testicular HAase)?
Answer: 12.58 µg/mL (≈ 23 µM)

Question: Which results are given for CC1(C)CCC2(C(=O)O)CCC3(C)C(=CCC4C5(C)Cc6c([nH]c7c(F)cc(F)cc67)C(C)(C)C5CCC43C)C2C1 (stereo not shown) [Compound 6c]?
Answer: Inhibition (%) of HAase enzyme activity (bovine testicular HAase; at 40 μg/mL): 86.3 ± 3.3%; IC50 on HAase enzyme activity (bovine testicular HAase): 9.97 µg/mL (≈ 17.7 µM); Inhibition type (Lineweaver-Burk plot) (HAase): mixed type of competitive and non-competitive inhibitions; decrease of ROS level vs H2O2-exposed cells (HaCaT cells): 23.6%

Question: Which results are given for Cc1cc(C)c2[nH]c3c(c2c1)CC1(C)C(CCC2(C)C1CC=C1C4CC(C)(C)CCC4(C(=O)O)CCC12C)C3(C)C (stereo not shown) [Compound 6d]?
Answer: Inhibition (%) of HAase enzyme activity (bovine testicular HAase; at 40 μg/mL): 93.5 ± 3.9%; IC50 on HAase enzyme activity (bovine testicular HAase): 11.62 µg/mL (≈ 20.9 µM)

Question: With CC1(C)CCC2(C(=O)O)CCC3(C)C(=CCC4C5(C)Cc6c([nH]c7ccc(Br)cc67)C(C)(C)C5CCC43C)C2C1 (stereo not shown) [Compound 6e] as the compound, how does the “Inhibition (%) of HAase enzyme activity” value (bovine testicular HAase; at 40 μg/mL) read?
Answer: 83.7 ± 3.3%

Question: And the “IC50 on HAase enzyme activity” value (bovine testicular HAase)?
Answer: 11.60 µg/mL (≈ 19.1 µM)

Question: For CC1(C)CCC2(C(=O)O)CCC3(C)C(=CCC4C5(C)Cc6c([nH]c7c(Br)cccc67)C(C)(C)C5CCC43C)C2C1 (stereo not shown) [Compound 6f], which “Inhibition (%) of HAase enzyme activity” value (bovine testicular HAase; at 40 μg/mL) is on record?
Answer: 100.6 ± 3.6%

Question: What about the “IC50 on HAase enzyme activity” value (bovine testicular HAase) of the same compound?
Answer: 10.14 µg/mL (≈ 16.7 µM)

Question: Which “Inhibition (%) of HAase enzyme activity” value (bovine testicular HAase; at 40 μg/mL) does the source give for CC1(C)CCC2(C(=O)O)CCC3(C)C(=CCC4C5(C)Cc6c([nH]c7c(Cl)cccc67)C(C)(C)C5CCC43C)C2C1 (stereo not shown) [Compound 6g] here?
Answer: 98.1 ± 0.4%

Question: What about the “IC50 on HAase enzyme activity” value (bovine testicular HAase) of the same compound?
Answer: 9.57 µg/mL (≈ 17 µM)

Question: And the “Inhibition type (Lineweaver-Burk plot)” value (HAase)?
Answer: mixed type of competitive and non-competitive inhibitions
